Experiment [1] has as its system lymphoma cell SU-DHL-6. The experiment is described as follows: CellTiter-Glo inhibition of proliferation of lymphoma cell SU-DHL-6. The experiment is classed as cell-based. The settings on record: Homo sapiens, 72 hours. The protocol:
CellTiter-Glo testing method was used to test the inhibition of the proliferation of lymphoma cell SU-DHL-6 (ATCC, Catalog number: CRL-2959) by the compounds. The cell culture solution used in the test was RPMI1640 (Invitrogen, Catalog number: 11875-093). 10% fetal calf serum (Invitrogen, Catalog number: 10099-141) was used in the test.
100 μL of culture solution containing 15000 cells was distributed to wells of a 96-well plate (Corning #3903). The plate was placed in a carbon dioxide incubator overnight. 0.5 μL of the compound (which was prepared using DMSO to have eight continuous concentration gradients) to be tested was added to each of the wells the next day. Each concentration was set with two replicates, and a well without cell (blank control) and a DMSO-well (solvent control). After dosing, the cells were cultured at 37° C. in 5% CO2 atmosphere for 72 hours. At last, 100 μL of CellTiter-Glo agent (Promega, Catalog number: G7571) was added to each of the wells. Luminescence signal was detected using Flex Station3 (Molecular Devices), and the IC50 value of each of the compounds inhibiting cell proliferation was calculated using XLfit software (Table 1).
On the technique in general: ATP-based viability assays read luminescence as a measure of living cells.

In experiment [2] the target is T1, PI3Kδ kinase (p110δ/p85α) (Homo sapiens, UniProt O00329).
T1 construct: purchased Millipore 14-604-K
The experiment in a line: Activity of PI3Kδ kinase by ADP-Glo method. In kind it is biochemical. The following applies: 17 nM kinase, 50 μM PIP2, 25 μM ATP. The protocol:
Activity of PI3Kδ kinase was tested by ADP-Glo method. ADP-Glo was obtained from Promega (#V9101). p110δ/p85α was obtained from Millipore (#14-604-K). The IC50 of each of the compounds was evaluated by testing the compound at 10 concentrations. The starting concentration was 1 μM, and then a 3-fold serial dilution was performed. Buffer solutions for the testing were 50 mM HEPES pH 7.5, 3 mM MgCl2, 1 mM EGTA, 100 mM NaCl, 0.03% CHAPS, and 2 mM DTT. The final concentration of the PI3Kδ kinase was 17 nM; the final concentration of PIP2 was 50 μM; and the final concentration of ATP was 25 μM.
1. Preparation of 10 μL of kinase reaction solution: 2.5 μL of test compound solution, 2.5 μL of kinase solution, and 5 μL of substrate solution were added to each well of a 384-well plate (Corning #4512).
2. The 384-well plate was covered and incubated at room temperature for 60 minutes.
3. 5 μL of reaction solution was transferred from each well to the wells of a new 384-well plate.
4. 5 μL of ADP-Glo reagent was added to the wells of the 384-well plate to terminate the reaction.
5. The 384-well plate was shaken gently on a shaking machine. 6. 10 μL of kinase detection reagent was added to each of the wells, followed by shaking for 1 minute and allowing to standing at room temperature for 30 minutes.
8. The luminescence values of the sample were read using Synegy. 9. Data were processed using Excel and was curve-fitted using XLFit software to obtain the IC50 value of each of the compounds (Table 1).
Background: ADP-Glo turns the ADP formed in a reaction into a luminescent signal.

The structures appear in SMILES notation.

T1 sequence (O00329 whole entry): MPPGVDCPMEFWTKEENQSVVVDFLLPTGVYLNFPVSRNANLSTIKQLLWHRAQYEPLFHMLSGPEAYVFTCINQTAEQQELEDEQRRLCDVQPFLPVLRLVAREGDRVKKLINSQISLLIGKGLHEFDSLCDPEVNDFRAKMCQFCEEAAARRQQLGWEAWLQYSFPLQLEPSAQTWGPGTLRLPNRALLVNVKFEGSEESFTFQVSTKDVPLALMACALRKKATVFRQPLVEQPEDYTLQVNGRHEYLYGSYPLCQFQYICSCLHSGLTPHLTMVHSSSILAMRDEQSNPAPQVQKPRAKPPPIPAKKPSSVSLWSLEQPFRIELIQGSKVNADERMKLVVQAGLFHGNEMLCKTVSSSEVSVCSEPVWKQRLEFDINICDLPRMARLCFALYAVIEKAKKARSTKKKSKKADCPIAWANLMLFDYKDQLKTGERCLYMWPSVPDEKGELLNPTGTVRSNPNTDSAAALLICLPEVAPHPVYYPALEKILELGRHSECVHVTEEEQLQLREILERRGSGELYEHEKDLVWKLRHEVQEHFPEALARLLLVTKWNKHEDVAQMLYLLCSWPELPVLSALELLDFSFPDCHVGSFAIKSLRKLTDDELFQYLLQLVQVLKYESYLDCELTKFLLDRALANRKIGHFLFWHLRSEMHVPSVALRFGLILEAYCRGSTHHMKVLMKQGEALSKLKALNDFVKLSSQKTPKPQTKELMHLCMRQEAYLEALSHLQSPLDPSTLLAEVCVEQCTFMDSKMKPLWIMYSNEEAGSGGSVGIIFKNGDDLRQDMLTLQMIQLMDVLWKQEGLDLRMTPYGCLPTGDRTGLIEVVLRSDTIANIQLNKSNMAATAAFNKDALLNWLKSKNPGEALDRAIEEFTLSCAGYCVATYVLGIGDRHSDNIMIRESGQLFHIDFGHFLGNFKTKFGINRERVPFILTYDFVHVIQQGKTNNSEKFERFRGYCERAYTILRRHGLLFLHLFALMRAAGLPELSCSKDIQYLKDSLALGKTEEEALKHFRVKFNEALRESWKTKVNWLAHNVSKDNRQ
T1 sequence (P27986 whole entry partner): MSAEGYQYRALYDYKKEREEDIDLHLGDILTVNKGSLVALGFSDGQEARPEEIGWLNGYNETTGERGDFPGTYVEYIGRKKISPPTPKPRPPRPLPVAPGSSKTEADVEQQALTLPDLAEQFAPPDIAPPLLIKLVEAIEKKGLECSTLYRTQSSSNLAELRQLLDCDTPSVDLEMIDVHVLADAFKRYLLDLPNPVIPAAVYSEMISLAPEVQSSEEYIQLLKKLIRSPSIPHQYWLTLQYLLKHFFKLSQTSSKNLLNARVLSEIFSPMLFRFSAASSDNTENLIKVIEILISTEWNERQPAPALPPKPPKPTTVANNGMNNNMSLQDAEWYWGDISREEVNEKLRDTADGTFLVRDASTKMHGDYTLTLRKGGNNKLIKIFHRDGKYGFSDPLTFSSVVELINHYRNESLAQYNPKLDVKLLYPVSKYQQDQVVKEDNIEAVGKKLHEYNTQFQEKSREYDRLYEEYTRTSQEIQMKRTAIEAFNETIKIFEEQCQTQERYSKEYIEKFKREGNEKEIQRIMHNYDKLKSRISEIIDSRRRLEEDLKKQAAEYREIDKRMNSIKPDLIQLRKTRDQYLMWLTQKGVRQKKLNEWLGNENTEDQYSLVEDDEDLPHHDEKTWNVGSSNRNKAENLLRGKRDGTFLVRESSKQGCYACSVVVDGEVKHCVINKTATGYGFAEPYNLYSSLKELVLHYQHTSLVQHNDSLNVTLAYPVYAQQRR

Regarding `C[C@H](Nc1ncnc(N)c1C#N)c1cn2ncc(Cl)c2nc1-c1ccccc1` [Example 1, (S)-4-amino-6-(1-(3-chloro-5-phenylpyrazolo[1,5-a]pyrimidin-6-yl)ethylamino) pyrimidin-5-carbonitrile], the IC50 in experiment [1] is 20 to 100 nM; in experiment [2], less than 20 nM.

Consider `C[C@H](Nc1nc(N)nc(N)c1C#N)c1cn2ncc(Cl)c2nc1-c1ccccc1` [Example 2, (S)-2,4-diamino-6-(1-(3-chloro-5-phenylpyrazolo[1,5-a]pyrimidin-6-yl)ethylamino)pyrimidin-5-carbonitrile], for which the IC50 in experiment [1] and in experiment [2] was less than 20 nM each time.

In the case of `C[C@H](Nc1nc(N)nc(N)c1C#N)c1cn2ncc(Cl)c2nc1-c1cccc(F)c1` [Example 3, (S)-2,4-diamino-6-(1-(3-chloro-5-(3-fluorophenyl)pyrazolo[1,5-a]pyrimidin-6-yl)ethylamino)pyrimidin-5-carbonitrile], the IC50 in experiment [1] and in experiment [2] was less than 20 nM in each case.

As for `C[C@H](Nc1ncnc(N)c1C#N)c1cn2ncc(Cl)c2nc1-c1cccc(F)c1` [Example 4, (S)-4-amino-6-(1-(3-chloro-5-(3-fluorophenyl)pyrazolo[1,5-a]pyrimidin-6-yl)ethylamino)pyrimidin-5-carbonitrile], the half-maximal inhibitory concentration (IC50) in experiment [1] is 20 to 100 nM; in experiment [2] it was less than 20 nM.

With `Cc1nc(N)nc(N[C@@H](C)c2cn3ncc(Cl)c3nc2-c2ccccc2)c1C#N` [Example 5, (S)-2-amino-4-((1-(3-chloro-5-phenylpyrazolo[1,5-a]pyrimidin-6-yl)ethyl)amino)-6-methylpyrimidin-5-carbonitrile], the IC50 in experiment [1] was 20 to 100 nM; in experiment [2], less than 20 nM.

Broadly, the IC50 is the concentration needed to halve the response being measured.

(Values after patent US10702531B2, “Pyrazolopyrimidine compound as PI3K inhibitor and use thereof” (Shenzhen Bo Li Jian Medicine Co., Ltd., priority 2016, dated 2020).)
